Each structure is given as a SMILES string.

Experimental findings from US9494867B2, “Rinsing liquid for lithography and pattern forming method using same” (AZ ELECTRONIC MATERIALS (LUXEMBOURG) S.A.R.L., priority 2013, dated 2016) are described below.

A short description of one data set: Storage stability test of rinse solution. Type of data set: physicochemical. Set-up: key: when the defect number of the test rinse solution is equal to or less than that of the rinse solution of the deionized water, it is evaluated as ‘O’; when the number is more than that of the deionized water, it is evaluated as ‘X’. The note with it: additive concentrations more than 3,000 ppm. The method, then: A rinse solution prepared in a predetermined concentration is filtered through a filter and left at rest at 25° C. for one month. A chemically amplified KrF resist composition AZ DX6270P manufactured by AZ Electronic Materials Manufacturing (Japan) K. K. is spin-coated on a silicon wafer and soft-baked at 120° C. for 90 seconds to form a resist film of 620 nm in thickness. The rinse solution after preservation is applied on the resist film and the wafer is rotated at a very high speed to dry it. The total defect numbers of all defects including gel defects and particle defects on this film are measured using a defect inspection apparatus KLA2360 manufactured by KLA Tencor corporation. The number of defects when the preserved test rinse solution is used as a rinse solution is compared with that when the preserved rinse solution consisting of only a deionized water is used (see Comparative example 1) and when the defect number of the test rinse solution is equal to or less than that of the rinse solution of the deionized water, it is evaluated as ‘O’ and when the number is more than that of the deionized water, it is evaluated as ‘X’.
Consider `CCOC(O)C#CC(O)OCC` (stereo not shown) [DODD, 3,8-dioxa-5-decyne-4,7-diol, reference compound], for which the Storage stabilities entry is “X”.

A short description of another data set: Measurement of maximum dissolution quantity in water. The format is physicochemical. The note with it: water of 25° C. The method, then:
Different amounts of an additive agent for a rinse solution are added between transparent screws and in each cases water is further added as the total amount of the additive agent and water is made 100 g. These are mixed at 25° C. for 10 hours or more by using a stealer and left at rest for some time at this temperature. The state of dissolution thereof is observed by eyes and the maximum amount of the additive agent wherein insoluble matter is not observed in the solution is defined as a maximum dissolution quantity (ppm).
With `OCCCCO` [1,4-butanediol, reference compound], the “Maximum dissolution quantity of additives in water” value (shortened to “Maximum dissolution quantity”) is >10,000 ppm.

As to `OCC#CCO` [BTD, 1,4-butynediol], the “Maximum dissolution quantity” value was >10,000 ppm.

Turning to `OCC1CCC(CO)CC1` (stereo not shown) [CHDM, 1,4-cyclohexanedimethanol, reference compound], the “Maximum dissolution quantity” value is listed as >10,000 ppm.

With `CC(C)(O)C#CC(C)(C)O` [DMHD, 2,5-dimethyl-3-hexyne-2,5-diol], the “Maximum dissolution quantity” value is reported as >10,000 ppm.

Take `CCC(C)(O)C#CC(C)(O)CC` (stereo not shown) [DMOD, 3,6-dimethyl-4-octyn-3,6-diol]: the “Maximum dissolution quantity” value is reported as >10,000 ppm.

For `CCOC(O)C#CC(O)OCC` (stereo not shown) [DODD, 3,8-dioxa-5-decyne-4,7-diol, reference compound], the “Maximum dissolution quantity” value is >10,000 ppm.

In the case of `OCC#CC#CCO` [HXDD, 2,4-hexadiyn-1,6-diol], the “Maximum dissolution quantity” value is >10,000 ppm.

In the case of `CC(O)C#CC(C)O` (stereo not shown) [HXYD, 3-hexyne-2,5-diol], the “Maximum dissolution quantity” value is >10,000 ppm.

Take `OCc1cccc(CO)c1` [MXG, 1,3-benzendimethanol]: the “Maximum dissolution quantity” value is recorded as >10,000 ppm.

Take `OCc1ccccc1CO` [OXG, 1,2-benzendimethanol]: the “Maximum dissolution quantity” value is listed as >10,000 ppm.

Consider `OCc1ccc(CO)cc1` [PXG, p-xylylene glycol], for which the “Maximum dissolution quantity” value is given as >10,000 ppm.

Another data set in a line: Measurement of surface tension of rinse solution. The format is physicochemical. Particulars: rinse solution containing 1,000 ppm of the additive. The protocol: A surface tension measurement of a prepared rinse solution was conducted using the surface tensiometer CBVP-Z manufactured by Kyowa interface science Co., LTD.
As to `CC(O)C=CC(C)O` (stereo not shown) [HXED, 3-hexene-2,5-diol], the “Surface tension of the rinse solution” value came to 66.5 mN/m.
